In patent publication US8410310B2, “Trypsin-like serine protease inhibitors, and their preparation and use” (The Medicines Company (Leipzig) GmbH, priority 2006, dated 2013):

Key:
[1] = test system: t-PA-induced lysis of whole blood clots; test: Whole blood fibrinolysis assay (ROTEM, EXTEM with t-PA); assay type: cell-based, human; conditions: human whole blood, t-PA 100 U/mL, Ly60; read-out: concentration resulting in 50% suppression of clot lysis (IC50, median [25%; 75% percentile])
Protocol: (§1) Venous blood was withdrawn from the antecubital vein from healthy volunteers after written informed consent in accordance with local and federal guidelines with approval of the local review board (Ethikkommission, Klinikum Charité, Sauerbruchweg 5, 10117 Berlin). The blood was mixed with 0.11 mol/L sodium citrate (1:10). For ROTEM® analysis, whole citrated blood was used within 8 h after collection. Platelet-rich plasma (PRP) was prepared from citrated blood by centrifugation at 330×g for 10 min at room temperature, platelet-poor plasma (PPP) was collected following centrifugation at 1220×g for 12 min. The PRP was then adjusted to 3×10^8 platelets per mL using the autologous PPP. PRP was maintained at room temperature for less than 4 h before analysis. The remaining PPP was subjected to a high-speed centrifugation at 40,000×g for 30 min at 4° C. to remove any particulate material and was then stored at −70° C. until use.
(§2) The antifibrinolytic activity of Compound No. 3 in comparison to aprotinin and tranexamic acid was investigated in plasma and whole blood assays. In both assays, tissue factor was added to initiate rapid clot formation via the extrinsic pathway which produces a clot that remains stable for several hours under normal conditions. Supplementation of plasma or whole blood with tissue-type plasminogen activator (t-PA) before stimulation results in activation of endogenous plasminogen and thus fibrinolysis while the initial clot formation is not impaired. […] A final concentration of 50 U/mL and 100 U/mL in plasma and whole blood, respectively, was chosen to achieve complete lysis within about 60 min. In the presence of antifibrinolytics, clot lysis is delayed in a concentration-dependent manner.
Fibrinolysis in whole blood was studied with rotational thromboelastometry (Luddington, Clin. Lab. Haematol. 27: 81-90, 2005) using a computerized, multi-channel ROTEM® instrument (Pentapharm, Munich, Germany) (Ganter et al., Anesth. Analg. 106: 1366-75, 2008). Activation of test samples accelerated the measurement process and enhanced reproducibility compared with conventional thromboelastography. To allow observation of fibrinolysis, ROTEM® analysis with tissue factor activation (EXTEM) was modified through addition of t-PA (Nielsen et al. Blood Coagul. Fibrinolysis 17: 75-81, 2006). Citrated blood was pre-incubated at 37° C. for 5 min with test compound or saline before tissue factor, CaCl2 and t-PA (100 U/mL final concentration) were added to start the reaction. Fibrinolysis was determined by measuring loss of clot strength with time and was recorded as Ly60 (percentage reduction of the maximum amplitude at 60 min after the onset of clotting). In control samples without inhibitor, clots were lysed completely within 60 min, such that Ly60 was above 90%. By plotting Ly60 versus test compound concentration, IC50 values for each compound were calculated.

[2] = test system: t-PA-induced fibrinolysis in plasma; test: Plasma fibrinolysis assay (turbidometric); assay type: biochemical; conditions: human plasma, t-PA 50 U/mL; read-out: IC50 on t-PA-induced fibrinolysis in plasma (median [25%; 75% percentile])
Protocol: as §1, §2
Inhibition of fibrinolysis in plasma was examined using a turbidometric method in 96-well flat-bottom plates. The time course of clot formation and lysis, reflected by an initial increase and subsequent decrease in turbidity, was recorded by continuously measuring the optical density (OD) at 405 nm. Similar models have been used widely to study the clot lysis process in human plasma (Kim et al., J. Thromb. Haemost. 5: 1250-6, 2007) as well as its inhibition by antifibrinolytic drugs (Sperzel et al., J. Thromb. Haemost. 5: 2113-8, 2007). Frozen and thawed human plasma (PPP) was pre-incubated with test compound or vehicle (Owren's Veronal buffer) for 5 min at 37° C. […] OD at 405 nm was monitored every 45 s for 180 min at 37° C. with a microplate reader (POLARstar OPTIMA, BMG Labtech, Offenburg, Germany). Fibrinolysis was quantified as the relative decrease in OD at 45 min after the maximum OD was reached. […]

IC50 [1]: 2.75 µM
IC50 [2]: 4.22 µM
SMILES: NC[C@H]1CC[C@H](C(=O)O)CC1 [tranexamic acid, trans-4-(aminomethyl)cyclo-hexanecarboxylic acid]
